The source of these data is patent US12655150B2 (Cedilla Therapeutics, Inc., priority 2021, dated 2026).

Where only a bound is given, the exact number is not on record here.

The first assay has as its system NCI-H226. The experiment in a line: 72H TEAD Proliferation Assay (Cell Titer Glo 2.0). Format: cell-based. To be noted: Homo sapiens, CTG 2.0, cell line not given (NCI-H226 responsive, NCI-H28 non-responsive). Put shortly: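 NF2-deficient NCI-H226 mesothelioma cells, TEAD-dependent, treated 72 h; NF2-wild-type NCI-H28 serves as the TEAD-independent counter-screen for off-target cytotoxicity. Viable cells quantified by CellTiter-Glo 2.0 luminescence; background and time-zero signal subtracted, GI50 from nonlinear dose-response fit.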
As for `O=C(/C=C/CF)NCc1nc(-c2ccc(C(F)(F)F)cc2)c2cccnc2n1` [I-308, (E)-4-fluoro-N-((4-(4-(trifluoromethyl)phenyl)pyrido[2,3-d]pyrimidin-2-yl)methyl)but-2-enamide], the GI50 was not above 1 µM.

Staying with this assay, now noted: Homo sapiens, NCI-H226, 72 h, CTG 2.0, cell line not given (NCI-H226 responsive, NCI-H28 non-responsive).
For `CN(C)CC(=O)Nc1ccc2c(c1)nc(-c1ccc(C(C)(C)C)cc1)c1cccn12` [I-205, N-(4-(4-(tert-butyl)phenyl)pyrrolo[1,2-a]quinoxalin-7-yl)-2-(dimethylamino)acetamide], the GI50 is 1 to 5 µM.
The same measure, in the same setting: next, `C#Cc1cc(-c2ccc(C(F)(F)F)cc2)nc2cc(C(=O)O)ccc12` [I-402, 4-ethynyl-2-(4-(trifluoromethyl)phenyl)quinoline-7-carboxylic acid]: not above 1 µM.
Still for that read-out and setting: as for `O=C(O)c1ccc2c(c1)nc(N1CCC3(CC1)CC3(F)F)c1cccn12` [I-36, 4-(1,1-Difluoro-6-azaspiro[2.5]octan-6-yl)pyrrolo[1,2-a]quinoxaline-7-carboxylic acid], the figure is not above 1 µM; as for `O=C(O)c1ccc2c(c1)nc(N1CCC3(CCCC3)CC1)c1nccn12` [I-57, 4-(8-Azaspiro[4.5]decan-8-yl)imidazo[1,2-a]quinoxaline-7-carboxylic acid], more than 10 µM; as for `CC(C)(C)c1ccc(-c2nc3cc(CO)ccc3n3ccnc23)cc1` [I-77, (4-(4-(tert-Butyl)phenyl)imidazo[1,2-a]quinoxalin-7-yl)methanol], more than 10 µM.
Still for that read-out and setting: next, `COC[C@H](C)NC(=O)c1ccc2c(C)cc(-c3ccc(C(F)(F)F)cc3)nc2c1` [I-263, (S)—N-(1-methoxypropan-2-yl)-4-methyl-2-(4-(trifluoromethyl)phenyl)quinoline-7-carboxamide]: not above 1 µM; `C=CC(=O)NCc1cn2ccnc2c(N2CCC3(CC2)CC3)n1` [I-437, N-((8-(6-azaspiro[2.5]octan-6-yl)imidazo[1,2-a]pyrazin-6-yl)methyl)acrylamide]: 1 to 5 µM; `O=C(O)c1ccc2c(c1)nc(-c1ccc(C(F)(F)F)cc1F)c1nccn12` [I-60, 4-(2-Fluoro-4-(trifluoromethyl)phenyl)imidazo[1,2-a]quinoxaline-7-carboxylic acid]: 1 to 5 µM.
As to `O=C(O)c1ccc2c(c1)nc(N1CCC3(CCCCCC3)C1)c1cccn12` [I-25, 4-(2-Azaspiro[4.6]undecan-2-yl)pyrrolo[1,2-a]quinoxaline-7-carboxylic acid], the concentration for 50% growth inhibition (GI50) was 5 to 10 µM.
`CC(C)(C)c1ccc(-c2nc3cc(C(=O)NS(=O)(=O)C4CC4)ccc3n3cccc23)cc1` [I-124, 4-(4-(tert-Butyl)phenyl)-N-(cyclopropylsulfonyl)pyrrolo[1,2-a]quinoxaline-7-carboxamide] returned a GI50 of more than 10 µM.
For `CC(C)(C)c1ccc(-c2nc(/C=C/c3nnn[nH]3)cn3ccnc23)cc1` [I-155, (E)-6-(2-(1H-tetrazol-5-yl)vinyl)-8-(4-(tert-butyl)phenyl)imidazo[1,2-a]pyrazine], the GI50 was more than 10 µM.
`O=C(O)c1ccc2c(OCC3CC3)cc(-c3ccc(C(F)(F)F)cc3)nc2c1` [I-375, 4-(cyclopropylmethoxy)-2-(4-(trifluoromethyl)phenyl)quinoline-7-carboxylic acid] registered a GI50 not above 1 µM.
The same measure, in the same setting: next, `CN(CCCC(F)(F)F)c1nc2cc(C(=O)O)ccc2n2cccc12` [I-125, 4-(Methyl(4,4,4-trifluorobutyl)amino)pyrrolo[1,2-a]quinoxaline-7-carboxylic acid]: more than 10 µM.
`O=C(O)c1ccc2c(c1)nc(N1CCC(F)(F)C1)c1cccn12` [I-11, 4-(3,3-Difluoropyrrolidin-1-yl)pyrrolo[1,2-a]quinoxaline-7-carboxylic acid] had a GI50 of more than 10 µM.
As for `COc1cc(-c2ccc(C(F)(F)F)cc2)nc2cc(NS(C)(=O)=O)ccc12` [I-383, N-(4-methoxy-2-(4-(trifluoromethyl)phenyl)quinolin-7-yl)methanesulfonamide], the GI50 fell in the range of 1 to 5 µM.
Still for that read-out and setting: as for `CC[C@H](CO)NC(=O)c1ccc2c(OC)cc(-c3ccc(C(F)(F)F)cc3OC)nc2c1` [I-342, (R)—N-(1-hydroxybutan-2-yl)-4-methoxy-2-(2-methoxy-4-(trifluoromethyl)phenyl)quinoline-7-carboxamide], the figure is 1 to 5 µM.
Still for that read-out and setting: next, `O=C(O)c1ccc2c(c1)nc(N1CCC3(CCOCC3)CC1)c1cccn12` [I-27, 4-(3-Oxa-9-azaspiro [5.5]undecan-9-yl) pyrrolo[1,2-a] quinoxaline-7-carboxylic acid]: 1 to 5 µM; `O=C(O)c1ccc2c(c1)nc(Oc1cccc(C(F)(F)F)c1)c1cccn12` [I-24, 4-(3-(Trifluoromethyl)phenoxy) pyrrolo[1,2-a] quinoxaline-7-carboxylic acid]: 1 to 5 µM; `O=C(O)c1ccc2c(c1)nc(-c1ccc(Cl)cc1)c1cccn12` [I-48, 4-(4-Chlorophenyl)pyrrolo[1,2-a]quinoxaline-7-carboxylic acid]: more than 10 µM.
The same measure, in the same setting: next, `CCOc1cc(-c2ccc(C(F)(F)F)cc2)nc2cc(C(=O)O)ccc12` [I-393, 4-ethoxy-2-(4-(trifluoromethyl)phenyl)quinoline-7-carboxylic acid]: not above 1 µM.
Compound `C=CC(=O)NCc1cn2ccnc2c(-c2ccc(C(C)(C)C)cc2)n1` [I-140, N-((8-(4-(tert-butyl)phenyl)imidazo[1,2-a]pyrazin-6-yl)methyl)acrylamide] came in with a GI50 not above 1 µM.
In turn, `CC(C)(C)c1ccc(-c2nc3cc(NC(=O)CO)ccc3n3cccc23)cc1` [I-203, N-(4-(4-(tert-butyl)phenyl)pyrrolo[1,2-a]quinoxalin-7-yl)-2-hydroxyacetamide] displayed a GI50 of 1 to 5 µM.
Same read-out and setting: next, `O=C(O)c1ccc2c(c1)nc(-c1ccc(C3(C(F)(F)F)CC3)cc1)c1nccn12` [I-67, 4-(4-(1-(Trifluoromethyl)cyclopropyl)phenyl)imidazo[1,2-a]quinoxaline-7-carboxylic acid]: more than 10 µM; `CC(C)Oc1cc(-c2ccc(C(F)(F)F)cc2)nc2cc(C(=O)O)ccc12` [I-394, 4-isopropoxy-2-(4-(trifluoromethyl)phenyl)quinoline-7-carboxylic acid]: not above 1 µM.
Same read-out and setting: as for `C=CC(=O)NCc1cn2ccnc2c(-c2ccc(F)cc2)n1` [I-110, N-((8-(4-fluorophenyl)imidazo[1,2-a]pyrazin-6-yl)methyl)acrylamide], the figure is 1 to 5 µM; as for `CC(C)(C)c1ccc(-c2cnc3ccc(-c4nnn[nH]4)cc3n2)cc1` [I-160, 2-(4-(tert-Butyl)phenyl)-7-(1H-tetrazol-5-yl)quinoxaline], more than 10 µM.
As to `C=CC(=O)NCc1cn2c(F)ccc2c(-c2ccc(C(F)(F)F)cc2)n1` [I-318, N-((6-Fluoro-1-(4-(trifluoromethyl)phenyl)pyrrolo[1,2-a]pyrazin-3-yl)methyl)acrylamide], the GI50 is not above 1 µM.
The compound `CC(C)(C)c1ccc(-c2nc(/C=C/C#N)cn3ccnc23)cc1` [I-154, (E)-3-(8-(4-(tert-Butyl)phenyl)imidazo[1,2-a]pyrazin-6-yl)acrylonitrile] had a GI50 of 1 to 5 µM.
On the same count and under the same terms, as for `COc1cc(-c2ccc(C(F)(F)F)cc2)nc2cc(C(=O)NCCC(=O)C(F)(F)F)ccc12` [I-362, 4-Methoxy-N-(4,4,4-trifluoro-3-oxobutyl)-2-(4-(trifluoromethyl)phenyl)quinoline-7-carboxamide], the figure is 1 to 5 µM.
